Structures are written as SMILES. “And” between values parts separate entries of the source, which are not always exact repeats. Equal values may be shown once.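 Five compound concentrations were applied to cells in 96-well plates for 48 hours; endpoints were derived by simple linear interpolation of the resulting dose-response curve. At the GI50, growth is halved. At the TGI there is no net growth.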

One assay concerns SK-OV-3 ovarian. In words: inhibition of tumour cell growth, NCI panel, 48 h.
In the case of `COc1ccc(C(=O)/C=C/c2ccc(Cl)cc2)cc1S(=O)(=O)Nc1c(N)nc(SC)[nH]c1=O`, the GI50 was 3.65 µM and the TGI was 13.4 µM.

Regarding `CN(C)c1ccc2nc3ccc(=[N+](C)C)cc-3oc2c1`, the GI50 was 6.65 µM and the TGI was 45.2 µM.

In the case of `O=C(O)CSSCC(=O)O`, the TGI is more than 100 µM.

In the case of `COc1cccc(C2=C(c3cn(C)c4ccccc34)C(=O)NC2=O)c1`, the GI50 is 12.7 µM and the TGI is more than 25 µM.

As for `CSc1nnc(CCSc2ccnc3c(C(F)(F)F)cccc23)o1`, the GI50 is more than 100 µM and the TGI is more than 100 µM.

With `COc1ccc(Cn2nc(-c3cc(OC)c(OC)c(OC)c3)c3c2CCc2cnoc2-3)cc1OC`, the GI50 is 4.36 µM and the TGI stood at 33 µM.

`Fc1ccc(-c2nc3n(c2-c2ccncc2)CCS3)cc1`: the GI50 was more than 25 µM and the TGI was more than 25 µM.

Turning to `C=C(C)[C@@H]1CC=C(CO)CC1`, the GI50 is more than 10 µM; the TGI was > 10 µM and 2570 µM.

On to `N#Cc1ncc(/N=C/c2ccc(N(CCCl)CCCl)cc2)s1`, for which the GI50 is 27.7 µM and the TGI is more than 100 µM.

The next assay has as its system HL-60(TB) leukemia. As to the kind of experiment: inhibition of tumour cell growth, NCI panel, 48 h.
On to `COc1ccc(C(=O)/C=C/c2ccc(Cl)cc2)cc1S(=O)(=O)Nc1c(N)nc(SC)[nH]c1=O`, for which the GI50 was 3.2 µM and the TGI stood at 16.1 µM.

`CN(C)c1ccc2nc3ccc(=[N+](C)C)cc-3oc2c1`: the GI50 is 0.269 µM and the TGI came to 1.2 µM.

For the compound `O=C(O)CSSCC(=O)O`, the TGI was more than 100 µM.

Consider `COc1cccc(C2=C(c3cn(C)c4ccccc34)C(=O)NC2=O)c1`, for which the GI50 is 11.2 µM and the TGI is more than 25 µM.

Turning to `CSc1nnc(CCSc2ccnc3c(C(F)(F)F)cccc23)o1`, the GI50 is 55.1 µM and the TGI was more than 100 µM.

In the case of `COc1ccc(Cn2nc(-c3cc(OC)c(OC)c(OC)c3)c3c2CCc2cnoc2-3)cc1OC`, the GI50 is 0.113 µM and the TGI was determined as 2.28 µM.

As to `Fc1ccc(-c2nc3n(c2-c2ccncc2)CCS3)cc1`, the GI50 is more than 25 µM and the TGI was more than 25 µM.

For the compound `C=C(C)[C@@H]1CC=C(CO)CC1`, the GI50 was more than 10 µM; the TGI is > 10 µM and 267 µM.

As for `N#Cc1ncc(/N=C/c2ccc(N(CCCl)CCCl)cc2)s1`, the GI50 is 7.44 µM and the TGI was more than 100 µM.

The subject of a further assay is HS 578T breast. In words: inhibition of tumour cell growth, NCI panel, 48 h.
Turning to `COc1ccc(C(=O)/C=C/c2ccc(Cl)cc2)cc1S(=O)(=O)Nc1c(N)nc(SC)[nH]c1=O`, the GI50 was 3.56 µM and the TGI came out at 24.2 µM.

With `CN(C)c1ccc2nc3ccc(=[N+](C)C)cc-3oc2c1`, the GI50 is 15.8 µM and the TGI stood at 64 µM.

Take `O=C(O)CSSCC(=O)O`: the TGI was more than 100 µM.

In the case of `COc1cccc(C2=C(c3cn(C)c4ccccc34)C(=O)NC2=O)c1`, the GI50 is 4.8 µM and the TGI was more than 25 µM.

On to `CSc1nnc(CCSc2ccnc3c(C(F)(F)F)cccc23)o1`, for which the GI50 was 18 µM and the TGI was found to be 73.2 µM.

With `COc1ccc(Cn2nc(-c3cc(OC)c(OC)c(OC)c3)c3c2CCc2cnoc2-3)cc1OC`, the GI50 is 2.22 µM and the TGI was determined as 15.2 µM.

Turning to `Fc1ccc(-c2nc3n(c2-c2ccncc2)CCS3)cc1`, the GI50 was more than 25 µM and the TGI is more than 25 µM.

Regarding `C=C(C)[C@@H]1CC=C(CO)CC1`, the TGI is more than 10 µM.

Consider `N#Cc1ncc(/N=C/c2ccc(N(CCCl)CCCl)cc2)s1`, for which the GI50 is 63.1 µM and the TGI was more than 100 µM.

The next assay deals with RXF 393 renal. As to the kind of experiment: inhibition of tumour cell growth, NCI panel, 48 h.
Take `COc1ccc(C(=O)/C=C/c2ccc(Cl)cc2)cc1S(=O)(=O)Nc1c(N)nc(SC)[nH]c1=O`: the GI50 was 1.6 µM and the TGI turned out to be 3.26 µM.

For the compound `CN(C)c1ccc2nc3ccc(=[N+](C)C)cc-3oc2c1`, the GI50 was 10.6 µM and the TGI is 50.4 µM.

`O=C(O)CSSCC(=O)O` returned a TGI of more than 100 µM.

Take `COc1cccc(C2=C(c3cn(C)c4ccccc34)C(=O)NC2=O)c1`: the GI50 is 6.43 µM and the TGI was more than 25 µM.

Take `CSc1nnc(CCSc2ccnc3c(C(F)(F)F)cccc23)o1`: the GI50 was 65.3 µM and the TGI was more than 100 µM.

As to `COc1ccc(Cn2nc(-c3cc(OC)c(OC)c(OC)c3)c3c2CCc2cnoc2-3)cc1OC`, the GI50 was 1.63 µM and the TGI was 9.29 µM.

Take `Fc1ccc(-c2nc3n(c2-c2ccncc2)CCS3)cc1`: the GI50 was more than 16.5 µM and the TGI is more than 25 µM.

As to `C=C(C)[C@@H]1CC=C(CO)CC1`, the GI50 is more than 10 µM; the TGI was > 10 µM and 569 µM.

Consider `N#Cc1ncc(/N=C/c2ccc(N(CCCl)CCCl)cc2)s1`, for which the GI50 is 12.4 µM and the TGI is 28.9 µM.

In another assay the test system is RPMI-8226 leukemia. As to the kind of experiment: inhibition of tumour cell growth, NCI panel, 48 h.
For the compound `COc1ccc(C(=O)/C=C/c2ccc(Cl)cc2)cc1S(=O)(=O)Nc1c(N)nc(SC)[nH]c1=O`, the GI50 was 2.17 µM and the TGI was 5.97 µM.

On to `CN(C)c1ccc2nc3ccc(=[N+](C)C)cc-3oc2c1`, for which the GI50 was 0.684 µM and the TGI is 21 µM.

Turning to `O=C(O)CSSCC(=O)O`, the TGI was more than 100 µM.

As to `COc1cccc(C2=C(c3cn(C)c4ccccc34)C(=O)NC2=O)c1`, the GI50 was 14.1 µM and the TGI is more than 25 µM.

In the case of `CSc1nnc(CCSc2ccnc3c(C(F)(F)F)cccc23)o1`, the GI50 was 33.5 µM and the TGI is more than 100 µM.

`COc1ccc(Cn2nc(-c3cc(OC)c(OC)c(OC)c3)c3c2CCc2cnoc2-3)cc1OC`: the GI50 is 2.69 µM and the TGI worked out at 23 µM.

On to `Fc1ccc(-c2nc3n(c2-c2ccncc2)CCS3)cc1`, for which the GI50 was more than 25 µM and the TGI is more than 25 µM.

Regarding `C=C(C)[C@@H]1CC=C(CO)CC1`, the TGI is more than 10 µM.

`N#Cc1ncc(/N=C/c2ccc(N(CCCl)CCCl)cc2)s1`: the GI50 was 53.7 µM and the TGI was more than 100 µM.

The values above are taken from PubChem BioAssay (NCI).
